The text below walks through data of US8937078B2, “Quinazolinones as prolyl hydroxylase inhibitors” (Janssen Pharmaceutica NV, priority 2009, dated 2015).

In test [1] the target is T1, human PHD2 (PHD2181-417) (Homo sapiens, UniProt Q9GZT9).
T1 construct: Smt (SUMO) tag (cleaved yes); made in house; host or cells: E. coli BL21 (pBAD vector)
Nature of the test: PHD enzymatic assay ([14C]-succinic acid production). Type of test: biochemical. The following applies: PHD2181-417, HIF-1α peptide 10 μM, average of results; read-out: Enzyme pIC50 (converted). A digest of the protocol: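 Activity measured as [14C]-succinic acid formed from [5-14C]-2-oxoglutarate over 10 minutes, with peptide substrate at 10 μM, in Tris-HCl pH 7.5 buffer containing catalase, DTT and ascorbate. Unreacted oxoglutarate removed by DNP derivatisation; supernatant beta-counted.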

Test [2] has as its system Hep-3B cells. Nature of the test: Cellular assay: erythropoietin secretion in Hep-3B cells. Type of test: cell-based, human. Particulars: Homo sapiens, Hep3B, 100 μM compound, 24 hours, percent of EPO secretion relative to assay control compound 7-[(4-Chloro-phenyl)-(5-methyl-isoxazol-3-ylamino)-methyl]-quinolin-8-ol, read-out: Cellular % EPO Stimulation. A digest of the protocol: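 Hep-3B cells in DMEM with 10% FBS, treated 24 h after plating with compounds at 100 μM final for a further 24 h. Secreted EPO in supernatant measured by MSD electrochemiluminescence sandwich immunoassay with anti-EPO detection antibody.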

T1 sequence (Q9GZT9 181-417): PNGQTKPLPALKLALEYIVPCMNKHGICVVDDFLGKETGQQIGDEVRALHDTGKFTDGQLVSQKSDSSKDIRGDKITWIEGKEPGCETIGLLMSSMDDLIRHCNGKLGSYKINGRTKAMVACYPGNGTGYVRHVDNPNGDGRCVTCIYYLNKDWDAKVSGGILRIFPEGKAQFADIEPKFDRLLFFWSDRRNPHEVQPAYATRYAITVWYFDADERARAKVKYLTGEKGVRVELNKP

Turning to `CSc1cc2c(=O)[nH]c(-n3cc(C(=O)O)cn3)nc2cc1Cl` [Example 158, 1-(7-Chloro-6-methylsulfanyl-4-oxo-3,4-dihydro-quinazolin-2-yl)-1H-pyrazole-4-carboxylic acid], the IC50 in test [1] is 39.8 nM. The Emax at 100 µM in test [2] is 15%.
The matching figures for `O=C(O)c1cnn(-c2nc3ccc(-c4ccc(F)cc4)cc3c(=O)[nH]2)c1` [Example 197, 1-[6-(4-Fluoro-phenyl)-4-oxo-3,4-dihydro-quinazolin-2-yl]-1H-pyrazole-4-carboxylic acid]: 20 nM and 108%.
The corresponding values for `O=C(O)c1cnn(-c2nc3c(OC(F)(F)F)cccc3c(=O)[nH]2)c1` [Example 117, 1-(4-Oxo-8-trifluoromethoxy-3,4-dihydro-quinazolin-2-yl)-1H-pyrazole-4-carboxylic acid] are 794 nM and 12%.
Consider `O=C(O)c1cnn(-c2nc3cc(S(=O)(=O)c4ccc(Cl)cc4)ccc3c(=O)[nH]2)c1` [Example 82, 1-[7-(4-Chloro-benzenesulfonyl)-4-oxo-3,4-dihydro-quinazolin-2-yl]-1H-pyrazole-4-carboxylic acid], for which the IC50 in test [1] is 63.1 nM. In test [2], the Emax at 100 µM stood at 15%.
For the compound `O=C(O)c1cnn(-c2nc3ccc(Oc4cccc(C(F)(F)F)c4F)cc3c(=O)[nH]2)c1` [Example 96, 1-[6-(2-fluoro-3-trifluoromethyl-phenoxy)-4-oxo-3,4-dihydro-quinazolin-2-yl]-1H-pyrazole-4-carboxylic acid], the IC50 in test [1] is 25.1 nM. The Emax at 100 µM in test [2] came out at 51%.
The corresponding values for `O=C(O)c1cnn(-c2nc3c(Cl)cccc3c(=O)[nH]2)c1` [Example 14, 1-(8-Chloro-4-oxo-3,4-dihydro-quinazolin-2-yl)-1H-pyrazole-4-carboxylic acid] are 251 nM and 8%.
Turning to `Cc1cccc(C)c1C(=O)Nc1ccc2nc(-n3cc(C(=O)O)cn3)[nH]c(=O)c2c1` [Example 166, 1-[6-(2,6-Dimethyl-benzoylamino)-4-oxo-3,4-dihydro-quinazolin-2-yl]-1H-pyrazole-4-carboxylic acid], in test [1], the IC50 is 31.6 nM. In test [2], the Emax at 100 µM was 11%.
As to `O=C(O)c1cnn(-c2nc3ccc(N4CCOCC4)cc3c(=O)[nH]2)c1` [Example 107, 1-(6-morpholin-4-yl-4-oxo-3,4-dihydro-quinazolin-2-yl)-1H-pyrazole-4-carboxylic acid], the IC50 in test [1] was 39.8 nM. Also, in test [2], the Emax at 100 µM came out at 45%.
Consider `Cc1ccc2nc(-n3cc(C(=O)O)cn3)[nH]c(=O)c2c1` [Example 8, 1-(6-Methyl-4-oxo-3,4-dihydro-quinazolin-2-yl)-1H-pyrazole-4-carboxylic acid], for which the IC50 in test [1] was 39.8 nM. In addition, in test [2], the Emax at 100 µM came out at 14%.
Regarding `O=C(O)c1cnn(-c2nc3ccc(COc4ccccc4)cc3c(=O)[nH]2)c1` [Example 74, 1-(4-Oxo-6-phenoxymethyl-3,4-dihydro-quinazolin-2-yl)-1H-pyrazole-4-carboxylic acid], the IC50 in test [1] was 31.6 nM. Besides, the Emax at 100 µM in test [2] is 35%.
Consider `O=C(O)c1cnn(-c2nc3ccc(Oc4cccnc4)cc3c(=O)[nH]2)c1` [Example 65, 1-[4-Oxo-6-(pyridin-3-yloxy)-3,4-dihydro-quinazolin-2-yl]-1H-pyrazole-4-carboxylic acid], for which the IC50 in test [1] was 25.1 nM. For the same compound, the Emax at 100 µM in test [2] was determined as 42%.
The matching figures for `Cc1cc(C)c2c(=O)[nH]c(-n3cc(C(=O)O)cn3)nc2c1` [Example 145, 1-(5,7-Dimethyl-4-oxo-3,4-dihydro-quinazolin-2-yl)-1H-pyrazole-4-carboxylic acid]: 398 nM and 16%.
The matching figures for `O=C(O)c1cnn(-c2nc3cc(Sc4ccc(Cl)cc4)ccc3c(=O)[nH]2)c1` [Example 79, 1-[7-(4-Chloro-phenylsulfanyl)-4-oxo-3,4-dihydro-quinazolin-2-yl]-1H-pyrazole-4-carboxylic acid]: 39.8 nM and 6%.
The matching figures for `Cc1ccc2c(=O)[nH]c(-n3cc(C(=O)O)cn3)nc2c1` [Example 10, 1-(7-Methyl-4-oxo-3,4-dihydro-quinazolin-2-yl)-1H-pyrazole-4-carboxylic acid]: 50.1 nM and 32%.
On to `O=C(O)c1cnn(-c2nc3cc(F)c(Oc4ccc5ccccc5c4)cc3c(=O)[nH]2)c1` [Example 52, 1-[7-Fluoro-6-(naphthalen-2-yloxy)-4-oxo-3,4-dihydro-quinazolin-2-yl]-1H-pyrazole-4-carboxylic acid], for which the IC50 in test [1] is 39.8 nM. Besides, in test [2], the Emax at 100 µM amounted to 76%.
Turning to `Cc1cc2nc(-n3cc(C(=O)O)cn3)[nH]c(=O)c2cc1Oc1cc(Cl)ccc1Cl` [Example 90, 1-[6-(2,5-dichloro-phenoxy)-7-methyl-4-oxo-3,4-dihydro-quinazolin-2-yl]-1H-pyrazole-4-carboxylic acid], the IC50 in test [1] is 25.1 nM. The Emax at 100 µM in test [2] stood at 113%.
The corresponding values for `O=C(O)c1cnn(-c2nc3ccc(C4CC4)cc3c(=O)[nH]2)c1` [Example 109, 1-(6-Cyclopropyl-4-oxo-3,4-dihydro-quinazolin-2-yl)-1H-pyrazole-4-carboxylic acid] are 25.1 nM and 100%.
The matching figures for `O=C(O)c1cnn(-c2nc3ccc(NS(=O)(=O)c4ccccc4)cc3c(=O)[nH]2)c1` [Example 169, 1-(6-Benzenesulfonylamino-4-oxo-3,4-dihydro-quinazolin-2-yl)-1H-pyrazole-4-carboxylic acid]: 25.1 nM and 34%.
The corresponding values for `O=C(O)c1cnn(-c2nc3cc(Oc4ccccc4)ccc3c(=O)[nH]2)c1` [Example 66, 1-(4-Oxo-7-phenoxy-3,4-dihydro-quinazolin-2-yl)-1H-pyrazole-4-carboxylic acid] are 63.1 nM and 41%.
Regarding `O=C(O)c1cnn(-c2nc3cc(S(=O)(=O)c4ccccc4Cl)ccc3c(=O)[nH]2)c1` [Example 83, 1-[7-(2-Chloro-benzenesulfonyl)-4-oxo-3,4-dihydro-quinazolin-2-yl]-1H-pyrazole-4-carboxylic acid], the IC50 in test [1] is 100 nM. In addition, the Emax at 100 µM in test [2] is 11%.
The matching figures for `O=C(O)c1cnn(-c2nc3ccc(Oc4ccc5ccccc5c4)cc3c(=O)[nH]2)c1` [Example 43, 1-[6-(Naphthalen-2-yloxy)-4-oxo-3,4-dihydro-quinazolin-2-yl]-1H-pyrazole-4-carboxylic acid]: 25.1 nM and 76%.
The matching figures for `COc1ccc(Sc2cc3c(=O)nc(-n4cc(C(=O)O)cn4)[nH]c3cc2Cl)cc1OC` [Example 26, 1-[7-Chloro-6-(3,4-dimethoxy-phenylsulfanyl)-4-oxo-1,4-dihydro-quinazolin-2-yl]-1H-pyrazole-4-carboxylic acid]: 31.6 nM and 55%.
The matching figures for `O=C(O)c1cnn(-c2nc3cc(F)c(Oc4ccccc4)c(F)c3c(=O)[nH]2)c1` [Example 64, 1-(5,7-Difluoro-4-oxo-6-phenoxy-3,4-dihydro-quinazolin-2-yl)-1H-pyrazole-4-carboxylic acid]: 25.1 nM and 22%.
